According to publication PMC9401498 (Clinical Cancer Research, 2021):
Entries after “also recorded” stand apart in the source; their conditions may differ.

System: patients with advanced and/or treatment-refractory solid tumors
Experiment: Safety and tolerability: adverse events
Type: in vivo, human
Conditions: for Alanine aminotransferase increased (treatment-related AE) / Ammonia increased (treatment-related AE) / Anemia (treatment-related AE) / Aspartate aminotransferase increased (treatment-related AE) / Blood alkaline phosphatase increased (treatment-related AE) / Blood bilirubin increased (treatment-related AE) / Blood creatinine increased (treatment-related AE) / Constipation (treatment-related AE) / Decreased appetite (treatment-related AE) / Diarrhea (treatment-related AE) / Dysgeusia (treatment-related AE) / Dyspepsia (treatment-related AE) / Fatigue (treatment-related AE) / Gastroesophageal reflux disease (treatment-related AE) / Hypomagnesemia (treatment-related AE) / Hyponatremia (treatment-related AE) / Nausea (treatment-related AE) / Neuropathy peripheral (treatment-related AE) / Patients with ≥1 treatment-emergent AE / Patients with ≥1 treatment-related AE / Photophobia (treatment-related AE) / Photopsia (treatment-related AE) / Thrombocytopenia (treatment-related AE) / Vision blurred (treatment-related AE) / Vomiting (treatment-related AE) / Weight decreased (treatment-related AE) / γ-Glutamyltransferase increased (treatment-related AE) / Abdominal distension (treatment-related AE) / Activated partial thromboplastin time prolonged (treatment-related AE): TID-fasted (n = 32)
[1] = across doses and schedules, 120 patients

## O=C(Cc1cccc(OC(F)(F)F)c1)Nc1ccc(CCCCc2nnc(NC(=O)Cc3ccccn3)s2)nn1 [telaglenastat, Telaglenastat]
All grades
  Alanine aminotransferase increased (treatment-related AE): 6 (18.8) n (%)
  Ammonia increased (treatment-related AE): 0 n (%)
  Anemia (treatment-related AE): 0 n (%)
  Aspartate aminotransferase increased (treatment-related AE): 6 (18.8) n (%)
  Blood alkaline phosphatase increased (treatment-related AE): 2 (6.3) n (%)
  Blood bilirubin increased (treatment-related AE): 0 n (%)
  Blood creatinine increased (treatment-related AE): 1 (3.1) n (%)
  Constipation (treatment-related AE): 2 (6.3) n (%)
  Decreased appetite (treatment-related AE): 0 n (%)
  Diarrhea (treatment-related AE): 1 (3.1) n (%)
  Dysgeusia (treatment-related AE): 1 (3.1) n (%)
  Dyspepsia (treatment-related AE): 0 n (%)
  Fatigue (treatment-related AE): 7 (21.9) n (%)
  Gastroesophageal reflux disease (treatment-related AE): 0 n (%)
  Hypomagnesemia (treatment-related AE): 0 n (%)
  Hyponatremia (treatment-related AE): 0 n (%)
  Nausea (treatment-related AE): 2 (6.3) n (%)
  Neuropathy peripheral (treatment-related AE): 1 (3.1) n (%)
  Patients with ≥1 treatment-emergent AE: 30 (93.8) n (%)
  Patients with ≥1 treatment-related AE: 23 (71.9) n (%)
  Photophobia (treatment-related AE): 1 (3.1) n (%)
  Photopsia (treatment-related AE): 1 (3.1) n (%)
  Thrombocytopenia (treatment-related AE): 0 n (%)
  Vision blurred (treatment-related AE): 0 n (%)
  Vomiting (treatment-related AE): 4 (12.5) n (%)
  Weight decreased (treatment-related AE): 0 n (%)
  γ-Glutamyltransferase increased (treatment-related AE): 1 (3.1) n (%)
Grade 3
  Abdominal distension (treatment-related AE): 0 n (%)
  Activated partial thromboplastin time prolonged (treatment-related AE): 0 n (%)
  Alanine aminotransferase increased (treatment-related AE): 5 (15.6) n (%)
  Ammonia increased (treatment-related AE): 0 n (%)
  Anemia (treatment-related AE): 0 n (%)
  Aspartate aminotransferase increased (treatment-related AE): 3 (9.4) n (%)
  Blood alkaline phosphatase increased (treatment-related AE): 1 (3.1) n (%)
  Blood bilirubin increased (treatment-related AE): 0 n (%)
  Blood creatinine increased (treatment-related AE): 1 (3.1) n (%)
  Constipation (treatment-related AE): 0 n (%)
  Decreased appetite (treatment-related AE): 0 n (%)
  Diarrhea (treatment-related AE): 0 n (%)
  Dysgeusia (treatment-related AE): 0 n (%)
  Dyspepsia (treatment-related AE): 0 n (%)
  Fatigue (treatment-related AE): 0 n (%)
  Gastroesophageal reflux disease (treatment-related AE): 0 n (%)
  Hypomagnesemia (treatment-related AE): 0 n (%)
  Hyponatremia (treatment-related AE): 0 n (%)
  Nausea (treatment-related AE): 0 n (%)
  Neuropathy peripheral (treatment-related AE): 0 n (%)
  Patients with ≥1 treatment-emergent AE: 9 (28.1) n (%)
  Patients with ≥1 treatment-related AE: 4 (12.5) n (%)
  Photophobia (treatment-related AE): 0 n (%)
  Photopsia (treatment-related AE): 0 n (%)
  Thrombocytopenia (treatment-related AE): 0 n (%)
  Vision blurred (treatment-related AE): 0 n (%)
  Vomiting (treatment-related AE): 0 n (%)
  Weight decreased (treatment-related AE): 0 n (%)
  γ-Glutamyltransferase increased (treatment-related AE): 0 n (%)
Grade 4
  Abdominal distension (treatment-related AE): 0 n (%)
  Activated partial thromboplastin time prolonged (treatment-related AE): 0 n (%)
  Alanine aminotransferase increased (treatment-related AE): 0 n (%)
  Ammonia increased (treatment-related AE): 0 n (%)
  Anemia (treatment-related AE): 0 n (%)
  Aspartate aminotransferase increased (treatment-related AE): 2 (6.3) n (%)
  Blood alkaline phosphatase increased (treatment-related AE): 0 n (%)
  Blood bilirubin increased (treatment-related AE): 0 n (%)
  Blood creatinine increased (treatment-related AE): 0 n (%)
  Constipation (treatment-related AE): 0 n (%)
  Decreased appetite (treatment-related AE): 0 n (%)
  Diarrhea (treatment-related AE): 0 n (%)
  Dysgeusia (treatment-related AE): 0 n (%)
  Dyspepsia (treatment-related AE): 0 n (%)
  Fatigue (treatment-related AE): 0 n (%)
  Gastroesophageal reflux disease (treatment-related AE): 0 n (%)
  Hypomagnesemia (treatment-related AE): 0 n (%)
  Hyponatremia (treatment-related AE): 0 n (%)
  Nausea (treatment-related AE): 0 n (%)
  Neuropathy peripheral (treatment-related AE): 0 n (%)
  Patients with ≥1 treatment-emergent AE: 3 (9.4) n (%)
  Patients with ≥1 treatment-related AE: 3 (9.4) n (%)
  Photophobia (treatment-related AE): 0 n (%)
  Photopsia (treatment-related AE): 0 n (%)
  Thrombocytopenia (treatment-related AE): 0 n (%)
  Vision blurred (treatment-related AE): 0 n (%)
  Vomiting (treatment-related AE): 0 n (%)
  Weight decreased (treatment-related AE): 0 n (%)
  γ-Glutamyltransferase increased (treatment-related AE): 1 (3.1) n (%)
TID-fasted, 7/32
  Incidence of treatment-related grade 3/4 AEs: 22%
Across doses and schedules, 87/120 patients
  Patients with treatment-related AEs of any grade: 72.5%
[1]
  ALT increased, treatment-related AE of any grade: 17%
  AST increased, treatment-related AE of any grade: 13%
  Fatigue, treatment-related AE of any grade: 23%
  Nausea, treatment-related AE of any grade: 19%
  Photophobia, treatment-related AE of any grade: 11%
All due to progressive disease (PD)
  Patients who died during the study-reporting period: Seven
Dose escalation, BID-fed schedule
  DLTs: No DLTs
Either schedule
  Hy's Law criteria (drug-induced liver injury): no patients on either schedule met criteria for the Hy's Law; also recorded: no cases of drug-induced liver injury according to the Hy's law criteria
Four SAEs: ALT and AST increase (400 mg TID), blood creatinine increase (250 mg TID), grade 2 convulsion (1,000 mg BID)
  Patients with treatment-related SAEs: 3 patients
